In ChEMBL document CHEMBL1926602, “Anisotropy studies of tRNA-T box antiterminator RNA complex in the presence of 1,4-disubstituted 1,2,3-triazoles” (Bioorg Med Chem Lett, 2011):

Key:
Nucleic Acid [1] = assay: Inhibition of A73U tRNA(Tyr)-5'Rhd-AM1A T box antiterminator RNA complex assessed as reduction in anisotrophy changes by at 100 uM by fluorescence anisotropy-based assay relative to untreated control; type: nucleic-acid assay
Nucleic Acid [2] = assay: Stabilization of A73U tRNA(Tyr)-5'Rhd-AM1A T box antiterminator RNA complex assessed as increase in anisotrophy changes by at 100 uM by fluorescence anisotropy-based assay relative to untreated control; type: nucleic-acid assay

| Structure (SMILES) | inhibition (Nucleic Acid [1]) | Activity (Nucleic Acid [2]) |
| --- | --- | --- |
| OC(COCc1ccccc1)Cn1cc(CN2CCN(c3ccccc3)CC2)nn1 (stereo not given) | 37% | – |
| CN(Cc1cn(CC(O)c2ccccc2)nn1)CC1CCCCC1 (stereo not given) | – | 6% |
| CCCCN(CCCC)Cc1cn(CC(O)COCc2ccccc2)nn1 (stereo not given) | 6% | – |
| O=C(OC1CCCCC1n1cc(CN2CCC(c3ccccc3)CC2)nn1)c1ccccc1 (stereo not given) | 16% | – |
| CC(C)CCN(C)Cc1cn(C2CCCCC2OC(=O)c2ccccc2)nn1 (stereo not given) | 26% | – |
| CN(Cc1cn(C2CCCCC2O)nn1)CC1CCCCC1 (stereo not given) | 47% | – |
| O=C(COc1ccccc1)OC1CCCCC1n1cc(CN2CCC(c3ccccc3)CC2)nn1 (stereo not given) | 42% | – |
| CCCCN(CCCC)Cc1cn(CC(O)COC(=O)C2CCCCC2)nn1 (stereo not given) | 12% | – |
| CN(Cc1ccccc1)Cc1cn(CC(O)c2ccccc2)nn1 (stereo not given) | 32% | – |
| O=C(COc1ccccc1)OC1CCCCC1n1cc(CN2CCN(c3ccccc3)CC2)nn1 (stereo not given) | 37% | – |
| CCOC(=O)C1CCCN(Cc2cn(C3CCCCC3OC(=O)COc3ccccc3)nn2)C1 (stereo not given) | 21% | – |
| CCCCCCCC(=O)OCC(O)Cn1cc(CN(C)CCCc2ccccc2)nn1 (stereo not given) | 12% | – |
| OC(Cn1cc(CN2CCOCC2)nn1)c1ccccc1 (stereo not given) | – | 6% |
| O=C(OCC(O)Cn1cc(CN2CCN(c3ccccc3)CC2)nn1)c1ccccc1 (stereo not given) | 11% | – |
| O=C(COc1ccccc1)OC1CCCCC1n1cc(CN2CCOCC2)nn1 (stereo not given) | 5% | – |
| CCCCNC(=O)OCC(O)Cn1cc(CN(C)CC2CCCCC2)nn1 (stereo not given) | 12% | – |
| CN(Cc1cn(C2CCCCC2OC(=O)COc2ccccc2)nn1)CC1CCCCC1 (stereo not given) | 37% | – |
| OC1CCCCC1n1cc(CN2CCOCC2)nn1 (stereo not given) | – | 24% |
| CCCCCCCC(=O)OCC(O)Cn1cc(CN(CCCC)CCCC)nn1 (stereo not given) | 71% | – |
| CCCCC(O)Cn1cc(CN2CCCC(C(=O)OCC)C2)nn1 (stereo not given) | 53% | – |
| OC1CCCCC1n1cc(CN2CCN(c3ccccc3)CC2)nn1 (stereo not given) | 47% | – |
| CN(CCc1ccccc1)Cc1cn(CC(O)COC(=O)c2ccccc2)nn1 (stereo not given) | 0% | – |
| OC1CCCCC1n1cc(CN2CCC(c3ccccc3)CC2)nn1 (stereo not given) | 42% | – |
| CN(CCCc1ccccc1)Cc1cn(CC(O)COC(=O)c2ccccc2)nn1 (stereo not given) | 12% | – |
| CCCCC(O)Cn1cc(CN(C)CCc2ccccc2)nn1 (stereo not given) | 29% | – |
| CC(C)CCN(C)Cc1cn(C2CCCCC2OC(=O)COc2ccccc2)nn1 (stereo not given) | 59% | – |
| CCCCNC(=O)OCC(O)Cn1cc(CN(C)CCC(C)C)nn1 (stereo not given) | 24% | – |

| Structure (SMILES) | inhibition (Nucleic Acid [1]) | Activity (Nucleic Acid [2]) |
| --- | --- | --- |
| O=C(NCc1ccccc1)OCC(O)Cn1cc(CN2CCC(c3ccccc3)CC2)nn1 (stereo not given) | 29% | – |
| O=C(OCC(O)Cn1cc(CN2CCOCC2)nn1)C1CCCCC1 (stereo not given) | 11% | – |
| CN(Cc1cn(C2CCCCC2OC(=O)Cc2ccccc2)nn1)CC1CCCCC1 (stereo not given) | 5% | – |
| O=C(Cc1ccccc1)OC1CCCCC1n1cc(CN2CCOCC2)nn1 (stereo not given) | – | 6% |
| CCOC(=O)C1CCCN(Cc2cn(CC(O)COCc3ccccc3)nn2)C1 (stereo not given) | 26% | – |
| CN(CCc1ccccc1)Cc1cn(C2CCCCC2OC(=O)COc2ccccc2)nn1 (stereo not given) | 32% | – |
| CCCCC(O)Cn1cc(CN2CCN(c3ccccc3)CC2)nn1 (stereo not given) | 47% | – |
| CCCCNC(=O)OCC(O)Cn1cc(CN2CCOCC2)nn1 (stereo not given) | 5% | – |
| CN(CCCc1ccccc1)Cc1cn(CC(O)COC(=O)NCc2ccccc2)nn1 (stereo not given) | 79% | – |
| CCCCC(O)Cn1cc(CN(C)CCCc2ccccc2)nn1 (stereo not given) | 37% | – |
| CN(CCCc1ccccc1)Cc1cn(CC(O)COCc2ccccc2)nn1 (stereo not given) | 18% | – |
| CN(CCc1ccccc1)Cc1cn(CC(O)COC(=O)NCc2ccccc2)nn1 (stereo not given) | 42% | – |
| CCCCN(CCCC)Cc1cn(C2CCCCC2O)nn1 (stereo not given) | 32% | – |
| CCCCN(CCCC)Cc1cn(CC(O)COC(=O)NCc2ccccc2)nn1 (stereo not given) | 42% | – |
| CN(Cc1cn(CC(O)COCc2ccccc2)nn1)CC1CCCCC1 (stereo not given) | 6% | – |
| CC(C)CCN(C)Cc1cn(CC(O)COC(=O)C2CCCCC2)nn1 (stereo not given) | 0% | – |
| CCCCN(CCCC)Cc1cn(CC(O)COC(=O)c2ccccc2)nn1 (stereo not given) | 12% | – |
| CCOC(=O)C1CCCN(Cc2cn(C3CCCCC3OC(=O)Cc3ccccc3)nn2)C1 (stereo not given) | 21% | – |
| CCCCN(CCCC)Cc1cn(C2CCCCC2OC(=O)COc2ccccc2)nn1 (stereo not given) | 26% | – |
| O=C(OC1CCCCC1n1cc(CN2CCOCC2)nn1)c1ccccc1 (stereo not given) | – | 6% |
| CCCCC(O)Cn1cc(CN2CCC(c3ccccc3)CC2)nn1 (stereo not given) | 16% | – |
| OC(COCc1ccccc1)Cn1cc(CN2CCOCC2)nn1 (stereo not given) | – | 12% |
| CCCCC(O)Cn1cc(CN(C)CCC(C)C)nn1 (stereo not given) | 47% | – |
| CN(Cc1cn(CC(O)COC(=O)C2CCCCC2)nn1)CC1CCCCC1 (stereo not given) | 18% | – |
| CCOC(=O)C1CCCN(Cc2cn(CC(O)COC(=O)c3ccccc3)nn2)C1 (stereo not given) | 6% | – |
| CC(C)CCN(C)Cc1cn(CC(O)COC(=O)NCc2ccccc2)nn1 (stereo not given) | 26% | – |
| O=C(NCc1ccccc1)OCC(O)Cn1cc(CN2CCN(c3ccccc3)CC2)nn1 (stereo not given) | 32% | – |

| Structure (SMILES) | inhibition (Nucleic Acid [1]) | Activity (Nucleic Acid [2]) |
| --- | --- | --- |
| CCCCC(O)Cn1cc(CN(CCCC)CCCC)nn1 (stereo not given) | 18% | – |
| CCCCC(O)Cn1cc(CN(C)CC2CCCCC2)nn1 (stereo not given) | 47% | – |
| CCCCCCCC(=O)OCC(O)Cn1cc(CN2CCOCC2)nn1 (stereo not given) | 0% | – |
| CC(C)CCN(C)Cc1cn(CC(O)COC(=O)c2ccccc2)nn1 (stereo not given) | 0% | – |
| CCOC(=O)C1CCCN(Cc2cn(CC(O)c3ccccc3)nn2)C1 (stereo not given) | – | 6% |
| CCCCNC(=O)OCC(O)Cn1cc(CN2CCCC(C(=O)OCC)C2)nn1 (stereo not given) | 24% | – |
| CC(C)CCN(C)Cc1cn(CC(O)c2ccccc2)nn1 (stereo not given) | 58% | – |
| CN(Cc1cn(CC(O)COC(=O)NCc2ccccc2)nn1)CC1CCCCC1 (stereo not given) | 32% | – |
| CCCCCCCC(=O)OCC(O)Cn1cc(CN2CCN(c3ccccc3)CC2)nn1 (stereo not given) | 26% | – |
| CCOC(=O)C1CCCN(Cc2cn(C3CCCCC3O)nn2)C1 (stereo not given) | 16% | – |
| CCCCN(CCCC)Cc1cn(C2CCCCC2OC(=O)Cc2ccccc2)nn1 (stereo not given) | 53% | – |
| CCCCNC(=O)OCC(O)Cn1cc(CN(CCCC)CCCC)nn1 (stereo not given) | – | 18% |
| OC(Cn1cc(CN2CCN(c3ccccc3)CC2)nn1)c1ccccc1 (stereo not given) | 32% | – |
| CN(CCc1ccccc1)Cc1cn(C2CCCCC2O)nn1 (stereo not given) | 21% | – |
| CCOC(=O)C1CCCN(Cc2cn(CC(O)COC(=O)C3CCCCC3)nn2)C1 (stereo not given) | – | 6% |
| O=C(OCC(O)Cn1cc(CN2CCOCC2)nn1)c1ccccc1 (stereo not given) | 5% | – |
| CN(Cc1cn(CC(O)COC(=O)c2ccccc2)nn1)CC1CCCCC1 (stereo not given) | 6% | – |
| CN(CCc1ccccc1)Cc1cn(CC(O)COCc2ccccc2)nn1 (stereo not given) | 18% | – |
| CC(C)CCN(C)Cc1cn(C2CCCCC2O)nn1 (stereo not given) | 42% | – |
| CCCCC(O)Cn1cc(CN2CCOCC2)nn1 (stereo not given) | 0% | – |
| CCCCNC(=O)OCC(O)Cn1cc(CN2CCN(c3ccccc3)CC2)nn1 (stereo not given) | 11% | – |
| O=C(OC1CCCCC1n1cc(CN2CCN(c3ccccc3)CC2)nn1)c1ccccc1 (stereo not given) | 21% | – |
| CCOC(=O)C1CCCN(Cc2cn(CC(O)COC(=O)NCc3ccccc3)nn2)C1 (stereo not given) | 47% | – |
| CN(Cc1cn(C2CCCCC2OC(=O)c2ccccc2)nn1)CC1CCCCC1 (stereo not given) | 32% | – |
| CN(CCCc1ccccc1)Cc1cn(C2CCCCC2OC(=O)COc2ccccc2)nn1 (stereo not given) | 42% | – |
| CCOC(=O)C1CCCN(Cc2cn(C3CCCCC3OC(=O)c3ccccc3)nn2)C1 (stereo not given) | 11% | – |
